Bridge positions count the residues as written; N and C are the ends. Square brackets hold non-standard residues; d marks the D form. Peptide text beside a SMILES is read from it. * marks the point of attachment. ξ: configuration not given here. Phe(4-COOH) = N[C@@H](Cc1ccc(C(=O)O)cc1)C(=O)O; Bip = N[C@@H](Cc1ccc(-c2ccccc2)cc1)C(=O)O; Phe(3-Me) = Cc1cccc(C[C@H](N)C(=O)O)c1; hArg = N=C(N)NCCCC[C@H](N)C(=O)O; Cha = N[C@@H](CC1CCCCC1)C(=O)O; Cit = NC(=O)NCCC[C@H](N)C(=O)O; Thr(3ξ) = CC(O)[C@H](N)C(=O)O; 12Ado = NCCCCCCCCCCCC(=O)O; Carboxymethyl = O=C(O)C*; Orn = NCCC[C@H](N)C(=O)O; Aun = NCCCCCCCCCCC(=O)O; Dab = NCC[C@H](N)C(=O)O; ξDab = NCCC(N)C(=O)O
Each molecule was assayed against T1, PD-1/PD-L1 interaction (PE-labeled human PD-L1-Ig binding to Jurkat cell line over-expressing human PD-1) (Homo sapiens, UniProt Q15116) (assay: Jurkat-PD-1 Cell Binding High-Content Screening Assay (CBA)). Settings: Jurkat cell line over-expressing human PD-1; PE-labeled PD-L1-Ig 20 nM final; read-out: Jurkat hPD1-PDL1 IC50.
T1 construct: expressed in transfected cells; host or cells: Jurkat
T1 sequence (Q15116 25-288): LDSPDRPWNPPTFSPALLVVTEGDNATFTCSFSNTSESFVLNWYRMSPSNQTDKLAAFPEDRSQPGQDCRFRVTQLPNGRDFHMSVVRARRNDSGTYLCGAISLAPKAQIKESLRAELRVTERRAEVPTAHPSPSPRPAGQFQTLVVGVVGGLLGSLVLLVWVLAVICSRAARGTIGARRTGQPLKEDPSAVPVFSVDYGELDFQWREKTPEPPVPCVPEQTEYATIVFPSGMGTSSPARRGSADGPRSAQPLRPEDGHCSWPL
Assay type: cell-based
In short: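 Read-out is high-content imaging of cell-bound phycoerythrin-tagged PD-L1-Ig on fixed, Hoechst-counterstained Jurkat cells that over-express human PD-1. Compound exposure lasts 2 h at 37° C before the labeled ligand (20 nM final) is added for a further hour.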

Row | Compound | IC50 [nM]
1 | CC(=O)NCCCC[C@@H]1NC(=O)[C@H](Cc2ccc(OCC(=O)O)cc2)NC(=O)[C@H](Cc2ccc(-c3ccccc3)cc2)NC(=O)[C@H](Cc2ccc(OCC(=O)O)cc2)NC(=O)[C@H](Cc2cccc(C)c2)NC(=O)[C@H](CC(=O)O)NC(=O)[C@H](Cc2ccc(OCC(=O)O)cc2)NC(=O)[C@H](C(C)O)NC(=O)CSC[C@@H](C(=O)N[C@@H](CCN)C(=O)NCCCCCCCCCCC(=O)O)NC(=O)[C@H](C(C)O)NC(=O)[C@H](C(C)C)NC(=O)[C@H](CC2CCCCC2)NC(=O)[C@H](CCN)NC(=O)[C@@H](CC(C)C)NC1=O (stereo partly drawn) [Compound 3495] ({CH2CO}-[Thr(3ξ)]Y(Carboxymethyl)D[Phe(3-Me)]Y(Carboxymethyl)[Bip]Y(Carboxymethyl)K(Ac)[dL][Dab][Cha]V[Thr(3ξ)]C[Dab][Aun]-OH; thioether N-14) | 16.8
2 | Cc1cccc(C[C@@H]2NC(=O)[C@H](CC(=O)O)NC(=O)[C@H](Cc3ccc(OCC(=O)O)cc3)NC(=O)[C@H](CCCNC(=N)N)NC(=O)CSC[C@@H](C(=O)N[C@H](CC(N)=O)C(=O)NCCCCCCCCCCC(=O)O)NC(=O)[C@H](C(C)O)NC(=O)[C@H](C(C)C)NC(=O)[C@H](CC3CCCCC3)NC(=O)[C@H](CCN)NC(=O)[C@@H](CC(C)C)NC(=O)[C@H](CCCNC(N)=O)NC(=O)[C@H](Cc3ccc(OCC(=O)O)cc3)NC(=O)[C@H](Cc3ccc(-c4ccccc4)cc3)NC(=O)[C@H](Cc3ccc(OCC(=O)O)cc3)NC2=O)c1 (stereo partly drawn) [Compound 3498] ({CH2CO}-RY(Carboxymethyl)D[Phe(3-Me)]Y(Carboxymethyl)[Bip]Y(Carboxymethyl)[Cit][dL][Dab][Cha]V[Thr(3ξ)]C[dN][Aun]-OH; thioether N-14) | 47.2
3 | Cc1cccc(C[C@@H]2NC(=O)[C@H](CC(=O)O)NC(=O)[C@H](Cc3ccc(OCC(=O)O)cc3)NC(=O)[C@H](C(C)O)NC(=O)CSC[C@@H](C(=O)N[C@H](CC(N)=O)C(=O)NCCCCCCCCCCC(=O)O)NC(=O)[C@H](C(C)O)NC(=O)[C@H](C(C)C)NC(=O)[C@H](CC3CCCCC3)NC(=O)[C@H](CCN)NC(=O)[C@@H](CC(C)C)NC(=O)[C@H](CCCNC(N)=O)NC(=O)[C@H](Cc3ccc(OCC(=O)O)cc3)NC(=O)[C@H](Cc3ccc(-c4ccccc4)cc3)NC(=O)[C@H](Cc3ccc(OCC(=O)O)cc3)NC2=O)c1 (stereo partly drawn) [Compound 3499] ({CH2CO}-[Thr(3ξ)]Y(Carboxymethyl)D[Phe(3-Me)]Y(Carboxymethyl)[Bip]Y(Carboxymethyl)[Cit][dL][Dab][Cha]V[Thr(3ξ)]C[dN][Aun]-OH; thioether N-14) | 15
4 | Cc1cccc(C[C@@H]2NC(=O)[C@H](CC(=O)O)NC(=O)[C@H](Cc3ccc(OCC(=O)O)cc3)NC(=O)[C@H](CCCNC(=N)N)NC(=O)CSC[C@@H](C(=O)NC(CCN)C(=O)NCCCCCCCCCCCC(=O)O)NC(=O)[C@H](C(C)O)NC(=O)[C@H](C(C)C)NC(=O)[C@H](CC3CCCCC3)NC(=O)[C@H](Cc3c[nH]cn3)NC(=O)[C@@H](CC(C)C)NC(=O)[C@H](CCCN)NC(=O)[C@H](CCCNC(N)=O)NC(=O)[C@H](Cc3ccc(-c4ccccc4)cc3)NC(=O)[C@H](C(C)C)NC2=O)c1 (stereo partly drawn) [Compound 3501] ({CH2CO}-RY(Carboxymethyl)D[Phe(3-Me)]V[Bip][Cit][Orn][dL]H[Cha]V[Thr(3ξ)]C[ξDab][12Ado]-OH; thioether N-14) | 103
5 | Cc1cccc(C[C@@H]2NC(=O)[C@H](CC(=O)O)NC(=O)[C@H](Cc3ccc(OCC(=O)O)cc3)NC(=O)[C@H](Cc3ccc(OCC(=O)O)cc3)NC(=O)CSC[C@@H](C(=O)NC(CCN)C(=O)NCCCCCCCCCCCC(=O)O)NC(=O)[C@H](C(C)O)NC(=O)[C@H](C(C)C)NC(=O)[C@H](CC3CCCCC3)NC(=O)[C@H](Cc3cnc[nH]3)NC(=O)[C@@H](CC(C)C)NC(=O)[C@H](CCCN)NC(=O)[C@H](CCCNC(N)=O)NC(=O)[C@H](Cc3ccc(-c4ccccc4)cc3)NC(=O)[C@H](C(C)C)NC2=O)c1 (stereo partly drawn) [Compound 3502] ({CH2CO}-Y(Carboxymethyl)Y(Carboxymethyl)D[Phe(3-Me)]V[Bip][Cit][Orn][dL]H[Cha]V[Thr(3ξ)]C[ξDab][12Ado]-OH; thioether N-14) | 63.1
6 | Cc1cccc(C[C@@H]2NC(=O)[C@H](CC(=O)O)NC(=O)[C@H](Cc3ccc(OCC(=O)O)cc3)NC(=O)[C@H](C(C)O)NC(=O)CSC[C@@H](C(=O)NC(CCN)C(=O)NCCCCCCCCCCC(=O)O)NC(=O)[C@H](C(C)O)NC(=O)[C@H](C(C)C)NC(=O)[C@H](CC3CCCCC3)NC(=O)[C@H](Cc3cnc[nH]3)NC(=O)[C@@H](CC(C)C)NC(=O)[C@H](CCCN)NC(=O)[C@H](CCCNC(N)=O)NC(=O)[C@H](Cc3ccc(-c4ccccc4)cc3)NC(=O)[C@H](C(C)C)NC2=O)c1 (stereo partly drawn) [Compound 3503] ({CH2CO}-[Thr(3ξ)]Y(Carboxymethyl)D[Phe(3-Me)]V[Bip][Cit][Orn][dL]H[Cha]V[Thr(3ξ)]C[ξDab][Aun]-OH; thioether N-14) | 38.2
7 | Cc1cccc(C[C@@H]2NC(=O)[C@H](CC(=O)O)NC(=O)[C@H](Cc3ccc(OCC(=O)O)cc3)NC(=O)[C@H](C(C)O)NC(=O)CSC[C@@H](C(=O)NC(CCN)C(=O)NCCCCCCCCCCCC(=O)O)NC(=O)[C@H](C(C)O)NC(=O)[C@H](C(C)C)NC(=O)[C@H](CC3CCCCC3)NC(=O)[C@H](CCN)NC(=O)[C@@H](CC(C)C)NC(=O)[C@H](CCCN)NC(=O)[C@H](CCCNC(N)=O)NC(=O)[C@H](Cc3ccc(-c4ccccc4)cc3)NC(=O)[C@H](C(C)C)NC2=O)c1 (stereo partly drawn) [Compound 3504] ({CH2CO}-[Thr(3ξ)]Y(Carboxymethyl)D[Phe(3-Me)]V[Bip][Cit][Orn][dL][Dab][Cha]V[Thr(3ξ)]C[ξDab][12Ado]-OH; thioether N-14) | 26.2
8 | CC(=O)NCCCC[C@@H]1NC(=O)[C@H](Cc2ccc(-c3ccccc3)cc2)NC(=O)[C@H](Cc2ccc(O)cc2)NC(=O)[C@H](Cc2cccc(C)c2)NC(=O)[C@H](CC(=O)O)NC(=O)[C@H](Cc2ccc(OCC(=O)O)cc2)NC(=O)[C@H](CCCCNC(=N)N)NC(=O)CSC[C@@H](C(=O)N[C@@H](CCN)C(=O)NCCCCCCCCCCC(=O)O)NC(=O)[C@H](C(C)O)NC(=O)[C@H](C(C)C)NC(=O)[C@H](CC2CCCCC2)NC(=O)[C@H](CCN)NC(=O)[C@@H](CC(C)C)NC(=O)[C@H](CCCN)NC1=O (stereo partly drawn) [Compound 3505] ({CH2CO}-[hArg]Y(Carboxymethyl)D[Phe(3-Me)]Y[Bip]K(Ac)[Orn][dL][Dab][Cha]V[Thr(3ξ)]C[Dab][Aun]-OH; thioether N-14) | 16.6

Stronger by IC50, values ahead:

Row | IC50 [nM] | Compound
9 | 9.8 | Cc1cccc(C[C@@H]2NC(=O)[C@H](CC(=O)O)NC(=O)[C@H](Cc3ccc(OCC(=O)O)cc3)NC(=O)[C@H](C(C)O)NC(=O)CSC[C@@H](C(=O)N[C@H](CC(N)=O)C(=O)NCCCCCCCCCCC(=O)O)NC(=O)[C@H](C(C)O)NC(=O)[C@H](C(C)C)NC(=O)[C@H](CC3CCCCC3)NC(=O)[C@H](CCN)NC(=O)[C@@H](CC(C)C)NC(=O)[C@H](CCCN)NC(=O)[C@H](Cc3ccc(OCC(=O)O)cc3)NC(=O)[C@H](Cc3ccc(-c4ccccc4)cc3)NC(=O)[C@H](C(C)C)NC2=O)c1 (stereo partly drawn) [Compound 3493] ({CH2CO}-[Thr(3ξ)]Y(Carboxymethyl)D[Phe(3-Me)]V[Bip]Y(Carboxymethyl)[Orn][dL][Dab][Cha]V[Thr(3ξ)]C[dN][Aun]-OH; thioether N-14)
10 | 11 | CC(=O)NCCCC[C@@H]1NC(=O)[C@H](Cc2ccc(OCC(=O)O)cc2)NC(=O)[C@H](Cc2ccc(-c3ccccc3)cc2)NC(=O)[C@H](Cc2ccc(OCC(=O)O)cc2)NC(=O)[C@H](Cc2cccc(C)c2)NC(=O)[C@H](CC(=O)O)NC(=O)[C@H](Cc2ccc(OCC(=O)O)cc2)NC(=O)[C@H](CCCNC(=N)N)NC(=O)CSC[C@@H](C(=O)N[C@@H](CCN)C(=O)NCCCCCCCCCCC(=O)O)NC(=O)[C@H](C(C)O)NC(=O)[C@H](C(C)C)NC(=O)[C@H](CC2CCCCC2)NC(=O)[C@H](CCN)NC(=O)[C@@H](CC(C)C)NC1=O (stereo partly drawn) [Compound 3496] ({CH2CO}-RY(Carboxymethyl)D[Phe(3-Me)]Y(Carboxymethyl)[Bip]Y(Carboxymethyl)K(Ac)[dL][Dab][Cha]V[Thr(3ξ)]C[Dab][Aun]-OH; thioether N-14)
11 | 3.6 | Cc1cccc(C[C@@H]2NC(=O)[C@H](CC(=O)O)NC(=O)[C@H](Cc3ccc(OCC(=O)O)cc3)NC(=O)[C@H](C(C)O)NC(=O)CSC[C@@H](C(=O)N[C@H](CC(N)=O)C(=O)NCCCCCCCCCCC(=O)O)NC(=O)[C@H](CCN)NC(=O)[C@H](C(C)C)NC(=O)[C@H](CC3CCCCC3)NC(=O)[C@H](CCN)NC(=O)[C@@H](CC(C)C)NC(=O)[C@H](CCCN)NC(=O)[C@H](Cc3ccc(OCC(=O)O)cc3)NC(=O)[C@H](Cc3ccc(-c4ccccc4)cc3)NC(=O)[C@H](Cc3ccc(OCC(=O)O)cc3)NC2=O)c1 (stereo partly drawn) [Compound 3497] ({CH2CO}-[Thr(3ξ)]Y(Carboxymethyl)D[Phe(3-Me)]Y(Carboxymethyl)[Bip]Y(Carboxymethyl)[Orn][dL][Dab][Cha]V[Dab]C[dN][Aun]-OH; thioether N-14)
12 | 5.2 | Cc1cccc(C[C@@H]2NC(=O)[C@H](CC(=O)O)NC(=O)[C@H](Cc3ccc(OCC(=O)O)cc3)NC(=O)[C@H](C(C)O)NC(=O)CSC[C@@H](C(=O)N[C@H](CC(N)=O)C(=O)NCCCCCCCCCCC(=O)O)NC(=O)[C@H](C(C)O)NC(=O)[C@H](C(C)C)NC(=O)[C@H](CC3CCCCC3)NC(=O)[C@H](CCN)NC(=O)[C@@H](CC(C)C)NC(=O)[C@H](CCCN)NC(=O)[C@H](Cc3ccc(C(=O)O)cc3)NC(=O)[C@H](Cc3ccc(-c4ccccc4)cc3)NC(=O)[C@H](Cc3ccc(C(=O)O)cc3)NC2=O)c1 (stereo partly drawn) [Compound 3500] ({CH2CO}-[Thr(3ξ)]Y(Carboxymethyl)D[Phe(3-Me)][Phe(4-COOH)][Bip][Phe(4-COOH)][Orn][dL][Dab][Cha]V[Thr(3ξ)]C[dN][Aun]-OH; thioether N-14)
